# Results from patent US12172986B2, “Splicing modulator antibody-drug conjugates and methods of use” (EISAI R&D MANAGEMENT CO., LTD., priority 2018, dated 2024).
# Key:
# [1] = tested on: TAOK1 (neojunction transcript); assay: In vivo PD RT-qPCR in NCI-N87 tumors, TAOK1; design: species or system mouse; details: 10 mg/kg IV single dose
# [2] = tested on: FBXW5 (mature mRNA transcript); assay: In vivo PD RT-qPCR in NCI-N87 tumors, FBXW5; design: species or system mouse; details: 10 mg/kg IV single dose
# [3] = tested on: THP1.1; assay: Payload cell potency and lethality CTGlo 72 h, THP1.1; format: cell-based; details: payload
# [4] = tested on: N87 cells; assay: Cell viability CellTiter-Glo, N87; format: cell-based, human; details: unconjugated payload of the ADC
# [5] = tested on: Ad2.2 pre-mRNA splicing; assay: In vitro splicing (IVS) RT-qPCR, Ad2.2 pre-mRNA, HeLa nuclear extract; format: biochemical; details: payload of the ADC; read-out: qPCR-IVS-AT S GMean IC50 (nM) Ad2.2 HELA.2
# Description: To evaluate payload activity in a cell-free system, an in vitro splicing assay was performed. The payloads were incubated with nuclear extracts and pre-mRNA substrate minigenes.
# HeLa nuclear extract preparation: HeLa S3 cell pellets were resuspended in hypotonic buffer (10 mM HEPES pH 7.9, 1.5 mM MgCl2, 10 mM KCl, 0.2 mM PMSF, 0.5 mM DTT) and the suspension was brought up to a total of 5 packed cell volume (PCV). After centrifugation, the supernatant was discarded, and the cells were brought up to 3 PCV with hypotonic buffer and incubated on ice for 10 min. Cells were lysed using a dounce homogenizer and then centrifuged. […]. The nuclei were gently mixed for 30 min before centrifuging. The supernatant (nuclear extract) was then dialyzed into storage buffer (20 mM HEPES pH 7.9, 100 mM KCl, 0.2 mM EDTA, 20% glycerol, 0.2 mM PMSF, 0.5 mM DTT). Protein concentration was determined using NanoDrop 8000 UV-Vis spectrophotometer (ThermoFisher Scientific).
# IVS: All Ad2-derived sequences (Pellizzoni et al. (1998) Cell 95(5):615-24) were cloned into pcDNA3.1(+) vector (Promega) using 5′ EcoRI and 3′ Xbal restriction sites. The plasmids were linearized using Xbal and used as DNA templates in in vitro transcription reactions. The FtzΔi intron-less plasmid (Luo and Reed (1999) 96(26):14937-42) was linearized using EcoRI. All RNAs were in vitro transcribed and then purified using MEGAScript T7 (Invitrogen) and MegaClear (Invitrogen) kits, respectively. For splicing reactions using Ad2 variant pre-mRNAs, 1 μL reactions were prepared using 8 μg nuclear extracts prepared from HeLa S3, 2 ng pre-mRNA, 0.2 ng FTZΔi, and varying concentrations of compounds or DMSO. After a 15 min pre-incubation at 30° C., 1 μL splicing activation buffer (0.5 mM ATP, 20 mM creatine phosphate, 1.6 mM MgCl2) was added, and the reactions were incubated for 90 min at 30° C. The reactions were then quenched with 13 μL DMSO, and 25 nL was used for RT-qPCR. RT-qPCR reactions were prepared using TaqMan RNA-to-CT 1-step kit (Life Technologies), RNA from splicing reactions, Ad2 (forward: […]; reverse: […]; probe: […]) and Ftz (forward: […]; reverse: […]; probe: […]) mRNA primer-probe sets. Prism 7 (Graphpad) was used for non-linear regression curve fitting of the formed spliced product and normalized to the control (DMSO) sample. […] In the presence of payload, a decrease in the amount of spliced product was observed.
# [6] = Chemical stability of ADC payload, pH 5.5 buffer; details: Table 26; corresponding payload, pH 5.5, 37C, t1/2
# [7] = tested on: MCF7 cells; assay: Cell viability CellTiter-Glo, HER2-negative MCF7; details: unconjugated payload of the ADC
# [8] = molecular target: T1, SF3b complex (Homo sapiens, UniProt O75533+Q7RTV0); assay: SF3B1 binding / scintillation proximity assay (SPA); details: payload of the ADC; read-out: SPA-AT S GMean IC50 (nM) SF381 (WT) HELA.2
# T1 construct: The beads were suspended and added to the prepared nuclear extracts
# [9] = tested on: MOLP8 cells; assay: Cell viability, CD138-expressing MOLP8; format: cell-based; details: unconjugated payload of the ADC
# [10] = tested on: Ad2.1 pre-mRNA splicing; assay: In vitro splicing (IVS) RT-qPCR, Ad2.1 pre-mRNA, HeLa nuclear extract; format: biochemical; details: payload of the ADC; read-out: qPCR-IVS-AT S Gmean IC50 (nm) Ad2.1 HELA.2
# [11] = tested on: Caco-2 cells; assay: Caco-2 permeability of ADC payload; format: in vitro ADME
# Description: (§1) Integrity of cell monolayer was confirmed by TEER (transepithelial electrical resistance) and Lucifer yellow. Payloads were spiked in duplicate at 10 μM, separately, on both sides of the cell monolayer. Permeability rates from the apical to basolateral (A-B) direction and the basolateral to apical (B-A) direction were determined by sampling aliquots from both chambers immediately after treatment (t=0) and following incubation for 2 hours. Samples were protein precipitated with organic solvent containing internal standard and analyzed by LC-MS/MS (SCIEX; API 5500). The area ratio responses of payload/internal standard over time in both directions were used to generate permeability (cm/see) values. Efflux ratio was calculated by dividing B-A/A-B. Control compounds for low and high permeability and efflux behaved as expected.
# [12] = Caco-2 permeability of ADC payload; format: in vitro ADME; details: human, Caco-2; payload, B-A/A-B; read-out: Eflux ratio
# Description: as §1
# [13] = tested on: HCC1954 cells; assay: Cell viability CellTiter-Glo, HCC1954; format: cell-based; details: unconjugated payload of the ADC
Compound,TAOK1 neojunction transcript in tumors [1],FBXW5 mature mRNA transcript in tumors [2],CTGlo-AT S GMean LD50 (nM) 72 h THP1.1 [3],Payload LD50 [4],IC50 [5],"pH 5.5 Stability (t1/2, 37C) [6]",Payload LD50 [7],Payload Rmin (%) [7],IC50 [8],LD50 (nM) (payload) [9],Rmin (%) (payload) [9],IC50 [10],"Permeability Caco-2 A-B (10e-6 cm/s) ([11]; Table 26, corresponding payload, A-B)",permeability (in words) ([11]; payload),"efflux ratio at 2 h, 10 μM [12]",Payload LD50 [13],Payload Rmin (%) [13]
"CC[C@H](O)[C@@H](C)C1OC1C[C@@](C)(O)/C=C/C=C(\C)[C@H]1OC(=O)C[C@H](O)CC[C@@](C)(OC)[C@@H](OC(=O)N2CCN(CCN3C(=O)C=CC3=O)CC2)/C=C/[C@@H]1C (stereo in doubt) [ADL14-D1, (2S,3S,6S,7R,10R,E)-10-hydroxy-2-((R,2E,4E)-6-hydroxy-7-((2S,3S)-3-((2R,3S)-3-hydroxypentan-2-yl)oxiran-2-yl)-6-methylhepta-2,4-dien-2-yl)-7-methoxy-3,7-dimethyl-12-oxooxacyclododec-4-en-6-yl 4-(2-(2,5-dioxo-2,5-dihydro-1 H-pyrrol-1-yl)ethyl)piperazine-1-carboxylate]",did not exhibit statistically significant changes,did not exhibit statistically significant changes,,,,,,,,,,,,,,,
CC[C@H](O)[C@@H](C)[C@H]1O[C@@H]1C[C@@](C)(O)/C=C/C=C(\C)[C@H]1OC(=O)C[C@H](O)CC[C@@](C)(OC)[C@@H](OC(=O)N2CCN(CCCC(=O)O)CC2)/C=C/[C@@H]1C [D25],,,2076.811 nM,>200 nM,50.9 nM,3.4,>200 nM,65.639%,14.6 nM,>400 nM,5.94%,244 nM,0.14 10e-6 cm/s,poorly permeable,2.55,>200 nM,26.882%
